Measurements as given in the NIST ThermoML archive (doi:10.1016/j.jct.2018.10.007).

Conditions: Liquid, Rate of evaporation

CCCCCCCCCCCCCC[P+](CCCC)(CCCC)CCCC.O=S(=O)([N-]S(=O)(=O)C(F)(F)F)C(F)(F)F
Conditions	vapor or sublimation pressure [kPa]
393.28 K	1.6e-09
395.67 K	2e-09
398.14 K	2.9e-09
400.54 K	4.1e-09
403.07 K	5.3e-09
405.5 K	7.3e-09
408.02 K	1e-08
410.51 K	1.4e-08
413.04 K	1.8e-08
415.54 K	2.5e-08
418.06 K	3.3e-08
420.57 K	4.4e-08
423.09 K	6e-08
425.61 K	7.6e-08
428.14 K	1.03e-07
430.65 K	1.35e-07
433.18 K	1.7e-07
435.69 K	2.23e-07
438.18 K	2.92e-07
440.71 K	3.73e-07

CCCCCCCCCCCCCC[P+](CCCCCC)(CCCCCC)CCCCCC.O=S(=O)([N-]S(=O)(=O)C(F)(F)F)C(F)(F)F
Conditions	vapor or sublimation pressure [kPa]
399.34 K	2.3e-11
404.33 K	4.6e-11
405.52 K	5.3e-11
407.95 K	7.1e-11
408.01 K	7.5e-11
409.24 K	8.6e-11
409.33 K	8.9e-11
410.52 K	1e-10
412.96 K	1.4e-10
413 K	1.5e-10
413.93 K	1.7e-10
414.15 K	1.7e-10
414.24 K	1.7e-10
414.33 K	1.7e-10
415.52 K	2e-10
417.97 K	2.9e-10
418 K	2.7e-10
419.13 K	3.2e-10
419.16 K	3.3e-10
419.24 K	3.1e-10
419.33 K	3.2e-10
420.52 K	3.8e-10
422.97 K	5.4e-10
423.01 K	5.1e-10
423.46 K	5.2e-10
424.17 K	6.4e-10
424.24 K	6.4e-10
424.31 K	6.1e-10
425.53 K	7.3e-10
427.91 K	9.2e-10
427.98 K	1e-09
428.01 K	1e-09
429.18 K	1e-09
429.24 K	1e-09
429.26 K	1.1e-09
430.53 K	1.3e-09
432.25 K	1.5e-09
433 K	1.8e-09
433.02 K	1.7e-09
434.17 K	2e-09
434.2 K	1.9e-09
434.24 K	1.9e-09
435.54 K	2.3e-09
436.8 K	2.6e-09
438.01 K	3.1e-09
438.02 K	3e-09
439.04 K	3.4e-09
439.21 K	3.6e-09
439.23 K	3.4e-09
440.54 K	4e-09
441.79 K	4.6e-09
443.01 K	5.2e-09
443.03 K	5.2e-09
443.88 K	5.8e-09
444.2 K	5.9e-09
444.26 K	6.3e-09
445.56 K	6.9e-09
446.75 K	8e-09
448.02 K	8.9e-09
448.07 K	8.7e-09
449.16 K	1e-08
449.26 K	1e-08
450.57 K	1.2e-08
451.67 K	1.4e-08
453.06 K	1.4e-08
454.09 K	1.7e-08
454.27 K	1.9e-08
456.51 K	2.2e-08
458.95 K	2.8e-08

CCCCCC[P+](CCCCCC)(CCCCCC)CCCCCC.[Br-] [tetrahexylphosphonium bromide]
Conditions	vapor or sublimation pressure [kPa]
400.93 K	3.7e-10
403.37 K	5.3e-10
403.43 K	5e-10
408.28 K	9.5e-10
408.37 K	9.4e-10
410.79 K	1.2e-09
410.8 K	1.3e-09
410.82 K	1.3e-09
413.22 K	1.7e-09
413.3 K	1.7e-09
415.71 K	2.1e-09
415.72 K	2.2e-09
415.78 K	2.3e-09
418.18 K	2.9e-09
418.27 K	2.9e-09
420.76 K	3.9e-09
423.16 K	5.2e-09
423.23 K	5.4e-09
425.66 K	6.9e-09
425.67 K	6.8e-09
425.75 K	6.8e-09
428.16 K	8.8e-09
428.22 K	8.9e-09
430.73 K	1.2e-08
433.18 K	1.5e-08
433.24 K	1.5e-08
435.67 K	2e-08
435.68 K	2e-08
435.75 K	2e-08
438.21 K	2.5e-08
438.25 K	2.6e-08
440.7 K	3.3e-08
440.72 K	3.3e-08
440.77 K	3.4e-08
443.24 K	4.2e-08
443.29 K	4.3e-08
445.74 K	5.5e-08
445.75 K	5.5e-08
445.79 K	5.8e-08
448.3 K	7.2e-08
448.31 K	7.1e-08
450.8 K	9.1e-08
450.81 K	9e-08

CCCCCC[P+](CCCCCC)(CCCCCC)CCCCCC.F[P-](F)(F)(F)(F)F [tetrahexylphosphonium hexafluorophosphate]
Conditions	vapor or sublimation pressure [kPa]
395.83 K	2e-10
400.74 K	3.8e-10
405.65 K	7e-10
408.42 K	1e-09
410.61 K	1.3e-09
413.37 K	1.9e-09
415.59 K	2.4e-09
418.31 K	3.4e-09
423.24 K	5.9e-09
428.21 K	1e-08
430.65 K	1.4e-08
433.2 K	1.8e-08
435.66 K	2.4e-08
438.23 K	3.1e-08
440.69 K	4e-08
443.24 K	5e-08
445.73 K	6.7e-08
448.28 K	8.5e-08
451.57 K	1.23e-07
453.41 K	1.42e-07

CCCCCCCC[P+](CCCCCCCC)(CCCCCCCC)CCCCCCCC.[Cl-] [tetraoctylphosphonium chloride]
Conditions	vapor or sublimation pressure [kPa]
408.38 K	1.5e-10
410.9 K	2.3e-10
413.32 K	2.9e-10
413.46 K	3.3e-10
415.87 K	4.2e-10
418.26 K	5.5e-10
418.44 K	5.9e-10
420.79 K	7.9e-10
423.23 K	1e-09
423.41 K	1.2e-09
425.8 K	1.5e-09
428.2 K	2e-09
428.36 K	2e-09
430.73 K	2.7e-09
433.18 K	3.8e-09
433.31 K	3.7e-09
435.74 K	5e-09
438.21 K	6.7e-09
438.28 K	6.6e-09
440.77 K	8.8e-09
443.21 K	1.2e-08
443.3 K	1.2e-08
445.8 K	1.5e-08
448.27 K	2.1e-08
448.33 K	2e-08
450.84 K	2.6e-08
453.31 K	3.9e-08
453.36 K	3.4e-08
455.89 K	4.6e-08
458.4 K	6.2e-08

CCCCCCC[P+](CCCCCC)(CCCCCC)CCCCCC.O=S(=O)([N-]S(=O)(=O)C(F)(F)F)C(F)(F)F [trihexylheptylphosphonium bis(trifluoromethanesulfonyl)imide]
Conditions	vapor or sublimation pressure [kPa]
408.53 K	6.2e-10
410.91 K	8.8e-10
413.56 K	1.1e-09
415.89 K	1.6e-09
418.57 K	2.1e-09
420.85 K	2.8e-09
423.58 K	3.8e-09
425.82 K	4.9e-09
428.58 K	6.7e-09
430.8 K	8.5e-09
433.58 K	1.2e-08
435.79 K	1.5e-08
438.58 K	2e-08
440.78 K	2.5e-08
443.58 K	3.4e-08
445.8 K	4.2e-08
448.56 K	5.8e-08
450.83 K	7e-08
453.59 K	9.5e-08
455.88 K	1.16e-07

CCCCCCC[P+](CCCCCC)(CCCCCC)CCCCCC.F[P-](F)(F)(F)(F)F [trihexylheptylphosphonium hexafluorophosphate]
Conditions	vapor or sublimation pressure [kPa]
405.87 K	3.6e-10
408.4 K	4.9e-10
410.8 K	6.7e-10
413.34 K	9e-10
415.74 K	1.2e-09
418.27 K	1.6e-09
420.69 K	2.2e-09
423.22 K	2.8e-09
425.68 K	3.8e-09
428.2 K	4.9e-09
430.66 K	6.5e-09
433.19 K	8.4e-09
435.68 K	1.1e-08
438.21 K	1.5e-08
440.7 K	1.9e-08
443.24 K	2.5e-08
445.74 K	3.1e-08
448.28 K	4.2e-08
450.97 K	5.3e-08
453.32 K	6.9e-08

CCCCCCCC[P+](CCCCCC)(CCCCCC)CCCCCC.F[P-](F)(F)(F)(F)F [trihexyloctylphosphonium hexafluorophosphate]
Conditions	vapor or sublimation pressure [kPa]
408.34 K	3.4e-10
410.85 K	4.4e-10
410.96 K	4.8e-10
413.36 K	6.3e-10
415.82 K	8.4e-10
415.89 K	8e-10
418.37 K	1.1e-09
420.79 K	1.5e-09
420.83 K	1.5e-09
423.37 K	2e-09
425.75 K	2.7e-09
425.79 K	2.7e-09
428.38 K	3.6e-09
430.75 K	4.6e-09
430.81 K	4.7e-09
433.38 K	6.1e-09
435.72 K	8e-09
435.73 K	7.9e-09
438.4 K	1.1e-08
440.74 K	1.4e-08
443.39 K	1.8e-08
445.76 K	2.3e-08
448.39 K	3e-08
450.79 K	3.9e-08
450.8 K	3.8e-08
453.43 K	5.1e-08
455.83 K	6.5e-08
455.85 K	6.4e-08

CCCCCC[P+](CCCCC)(CCCCCC)CCCCCC.F[P-](F)(F)(F)(F)F [trihexylpentylphosphonium hexafluorophosphate]
Conditions	vapor or sublimation pressure [kPa]
403.41 K	5e-10
405.89 K	6.6e-10
408.27 K	8.8e-10
410.78 K	1.2e-09
413.19 K	1.6e-09
415.69 K	2.1e-09
418.15 K	2.8e-09
420.65 K	3.7e-09
423.13 K	4.8e-09
425.62 K	6.5e-09
428.15 K	8.5e-09
430.63 K	1.1e-08
433.15 K	1.4e-08
435.65 K	1.8e-08
438.17 K	2.4e-08
440.7 K	3.1e-08
443.21 K	3.9e-08
445.73 K	5.1e-08
448.25 K	6.5e-08
450.79 K	8.3e-08
